Source: ChEMBL document CHEMBL2074437, “Expression and transport properties of the human ileal and renal sodium-dependent bile acid transporter” (Am J Physiol, 1998)

T1: Ileal sodium/bile acid cotransporter (Homo sapiens, UniProt Q12908)
T1 sequence (Q12908 whole entry): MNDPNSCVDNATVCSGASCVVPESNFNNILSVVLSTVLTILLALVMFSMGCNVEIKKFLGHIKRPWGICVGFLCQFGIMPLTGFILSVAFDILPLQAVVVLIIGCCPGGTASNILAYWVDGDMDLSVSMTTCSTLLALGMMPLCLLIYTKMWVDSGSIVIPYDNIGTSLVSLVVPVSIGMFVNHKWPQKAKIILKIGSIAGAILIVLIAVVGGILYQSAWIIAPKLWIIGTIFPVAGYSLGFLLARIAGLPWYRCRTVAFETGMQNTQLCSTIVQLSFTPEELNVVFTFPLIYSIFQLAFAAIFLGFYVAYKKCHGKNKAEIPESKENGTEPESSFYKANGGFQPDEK

B1: Ileal sodium/bile acid cotransporter (Homo sapiens) (protein)
chain: T1 sequence (Q12908 whole entry)

How the values were obtained:
Type in all cases: functional, cell-based
[1] = target: T1, Ileal sodium/bile acid cotransporter; experiment: TP_TRANSPORTER: inhibition of Taurocholate uptake in ASBT-expressing COS cells
[2] = substrate: C[C@H](CCC(=O)NCC(=O)O)[C@H]1CC[C@H]2[C@@H]3[C@H](O)C[C@@H]4C[C@H](O)CC[C@]4(C)[C@H]3CC[C@]12C; experiment: (§1) TP_TRANSPORTER: uptake in ASBT-expressing COS cells
[3] = substrate: C[C@H](CCC(=O)NCC(=O)O)[C@H]1CC[C@H]2[C@@H]3[C@@H](O)C[C@@H]4C[C@H](O)CC[C@]4(C)[C@H]3CC[C@]12C; experiment: as §1
[4] = substrate: C[C@H](CCC(=O)NCC(=O)O)[C@H]1CC[C@H]2[C@@H]3CC[C@@H]4C[C@H](O)CC[C@]4(C)[C@H]3C[C@H](O)[C@]12C; experiment: as §1

Molecule	Ki [1] [µM]	other results
C[C@H](CCC(=O)O)[C@H]1CC[C@H]2[C@@H]3CC[C@@H]4C[C@H](O)CC[C@]4(C)[C@H]3C[C@H](O)[C@]12C [DEOXYCHOLIC ACID]	6.3	Ki ([1]; cos): 6.3 µM
C[C@H](CCC(=O)NCCS(=O)(=O)O)[C@H]1CC[C@H]2[C@@H]3[C@@H](O)C[C@@H]4C[C@H](O)CC[C@]4(C)[C@H]3CC[C@]12C [TAURURSODIOL]	28	–
C[C@H](CCC(=O)NCCS(=O)(=O)O)[C@H]1CC[C@H]2[C@@H]3CC[C@@H]4C[C@H](O)CC[C@]4(C)[C@H]3C[C@H](O)[C@]12C [TAURODEOXYCHOLIC ACID]	17.2	–
C[C@H](CCC(=O)O)[C@H]1CC[C@H]2[C@@H]3[C@@H](O)C[C@@H]4C[C@H](O)CC[C@]4(C)[C@H]3CC[C@]12C [URSODIOL]	75	–
C[C@H](CCC(=O)O)[C@H]1CC[C@H]2[C@@H]3[C@H](O)C[C@@H]4C[C@H](O)CC[C@]4(C)[C@H]3CC[C@]12C [CHENODIOL]	3.3	–
C[C@H](CCC(=O)NCCS(=O)(=O)O)[C@H]1CC[C@H]2[C@@H]3[C@H](O)C[C@@H]4C[C@H](O)CC[C@]4(C)[C@H]3CC[C@]12C [TAUROCHENODEOXYCHOLATE]	6.1	–
O=C1OC(c2ccc(O)c(S(=O)(=O)O)c2)(c2ccc(O)c(S(=O)(=O)O)c2)c2c(Br)c(Br)c(Br)c(Br)c21 [SULFOBROMOPHTHALEIN SODIUM]	144	–
B1	–	Km [2]: 5.7 µM; Km [3]: 4.1 µM; Km [4]: 2 µM
